Values of other authors in PMC8538004, “Identification of a Novel Neuropeptide S Receptor Antagonist Scaffold Based on the SHA-68 Core” (Pharmaceuticals, 2021).

Columns and labels:
[1] = system: NPS-stimulated locomotor activity; parameters: method as in PMID 18337476, PMID 20172007; conditions: dosed at 50 mg/kg, 0.1 nmol of NPS; cited from earlier work
NPSR = system: NPSR; parameters: method as in PMID 24964000, PMID 20615693, PMID 18337476, PMID 24171469, PMID 20510609; conditions: Figure 1, known NPSR antagonists; cited from earlier work

For `O=C(NCc1ccc(F)cc1)N1CCN2C(=O)OC(c3ccccc3)(c3ccccc3)C2C1` (centres unmarked) [SHA-68, 3-Oxo-1,1-diphenyl-tetrahydro-oxazolo[3,4-a]pyrazine-7-carboxylic Acid 4-Fluoro-benzylamide], the “Block of NPS-stimulated locomotor activity” value [1] is listed as “significantly block” and the Ke (NPSR) is listed as 14 nM.
